Measured values reported in US20240344059A1, “Gene Editing of Regulatory Elements” (Vertex Pharmaceuticals Incorporated, priority 2021, published 2024).

Legend:
[1] = tested on: CUG RNA foci in primary DM1 patient myoblasts / myotubes; experiment: FISH staining of CUG RNA foci (SpCas9 sgRNA pairs); assay type: cell-based, human; conditions: DM1 patient myotubes nucleofected with SpCas9 sgRNA pairs, Group 5 vs Group 6
Description: Primary myoblasts were fixed for 15 min with 4% paraformaldehyde (PFA) and washed five times with 1×PBS for 10 min each at room temperature. Before staining, cells were permeabilized with 0.5% triton X-100 in 1×PBS for 5 min at room temperature, and then washed with 30% formamide and 2× saline-sodium citrate (SSC) mixture for 10 min at room temperature. Cells were then stained with 1 ng/μL of Cy3-PNA(CAG)5 probe (PNA Bio, F5001) diluted in 30% formamide, 2×SSC, 2 μg/mL BSA, 66 μg/mL yeast tRNA, and 2 mM vanadyl complex for 15 min at 80° C. Following probe staining, cells were then washed in 30% formamide and 2×SSC mixture for 30 min at 42° C., then washed in 30% formamide and 2×SSC mixture for 30 min at 37° C., and then washed in 1×SSC solution for 10 min at room temperature, and finally washed in 1×PBS for 10 min at room temperature. For staining of myotube nuclei, cells were stained with anti-Myogenin antibody diluted in 1% bovine serum albumin (BSA) for overnight at 4° C. and washed twice with 1×PBS for 10 min each at room temperature. Cells were then incubated with the secondary antibody goat anti-rabbit Alexa 647 (Thermo Fisher, A32728) diluted in 1% BSA for 1 hr at room temperature and washed twice with 1×PBS for 10 min each at room temperature. […] RNA foci quantifications were accomplished with a customized analysis module of the MetaXpress program (Molecular Devices). […]

[2] = tested on: E-boxes within intron 1 of human DMPK gene; experiment: PCR, TapeStation and ICE verification of E-box excision (SaCas9/SluCas9 RNP); assay type: cell-based; conditions: DM1 patient myoblasts, 3 μM DNA-PKi Compound 6 for 48 h, TapeStation and ICE analysis
Source text: Primary healthy myoblasts (P01431-18F) and DM1 patient myoblasts (03001-32F) were obtained from Cook MyoSite. Myoblasts were maintained in myoblast growth medium consisted of Myotonic™ Basal Medium (Cook Myosite, MB-2222) and Myotonic™ Growth Supplement (Cook Myosite, MS-3333) and purified with EasySep Human CD56 Positive Selection Kit II (StemCell Tech, 17855) following the manufacturer's instruction. Purified myoblasts were then banked in liquid nitrogen tank until 3-4 days before nucleofection.
The RNPs were assembled with either recombinant SaCas9 protein (Aldevron) or SluCas9 (Aldevron) and chemically modified sgRNAs (Synthego) at a ratio of 1:3 (protein:sgRNA). Specifically, SaCas9 RNPs complexes were first assembled for individual sgRNAs with 20 pmol of SaCas9 protein and 60 pmol of sgRNAs in 5 μL of P5 Nucleofector Solution. SluCas9 RNPs complexes were first assembled for individual sgRNAs with 15 pmol of SluCas9 and 45 pmol of sgRNAs in 5 μL of P5 Nucleofector Solution. […]
Genomic DNA of DM1 myoblasts was isolated with the Kingfisher Flex purification system (Thermal Fisher) in 96-well format following the manufacturer's instruction. […] The PCR products were analyzed by gel electrophoresis. […]

[3] = tested on: DMPK mRNA; experiment: DMPK mRNA expression by ddPCR (SaCas9/SluCas9 sgRNA pairs); assay type: cell-based, human; conditions: DM1 myotubes, 3 μM DNA-PKi Compound 6 for 48 h
Source text: mRNA of DM1 myotubes was isolated with the Kingfisher Flex purification system (Thermal Fisher) in 96-well format following the manufacturer's instruction. cDNA was synthesized with SuperScript™ IV VILO™ Master Mix with ezDNase™ Enzyme (Thermal Fisher) following mRNA isolation.
The primers and probes of ddPCR for hDMPK and GAPDH were pre-designed by Fisher Scientifics qPCR assays (Hs00266705_g1 and Hs01094329_m1). For DMPK expression, one target primer/probe set was used to detect DMPK expression levels, and one reference primer/probe set was used to detect GAPDH expression levels. The 24 μL of ddPCR reaction consisted of 12 μL of Supermix for Probes (no dUTP) (Bio-Rad Laboratories), 1 μL of Reference primers mix (21.6 μM), 1 μL of Reference probe (6 μM), 1 μL of Target primers mix (21.6 μM), 1 μL of Target probe (6 μM), 2 μL of H2O and 6 μL of sample genomic DNA. Droplets were generated using probe oil with the QX200 Droplet Generator (Bio-Rad Laboratories). […] The cycled plate was then transferred and read in the FAM and HEX channels using the Bio-Rad QX200 Droplet Reader (Bio-Rad Laboratories). ddPCR analysis was performed with the Bio-Rad QuantaSoft Pro Software. […]

[4] = tested on: CUG foci in myonuclei of DM1 patient myotubes; experiment: FISH staining of CUG RNA foci (SaCas9/SluCas9 sgRNA pairs); assay type: cell-based, human; set-up: average Foci reduction: concentration or dose not given beside the values; conditions: for average Foci reduction: myonuclei of DM1 patient myotubes
Description: Primary myotubes were fixed for 15 min with 4% paraformaldehyde (PFA) and washed five times with 1×PBS for 5 min each at room temperature. Before staining, cells were permeabilized with 0.5% triton X-100 in 1×PBS for 5 min at room temperature, and then washed with 30% formamide and 2× saline-sodium citrate (SSC) mixture for 10 min at room temperature. Cells were then stained with 1 ng/μL of Cy3-PNA(CAG)5 probe (PNA Bio, F5001) diluted in 30% formamide, 2×SSC, 2 μg/mL BSA, 66 μg/mL yeast tRNA, and 2 mM vanadyl complex for 15 min at 80° C. Following probe staining, cells were then washed in 30% formamide and 2×SSC mixture for 30 min at 60° C., then washed in 30% formamide and 2×SSC mixture for 30 min at 55° C., and then washed in 1×SSC solution for 10 min at room temperature, and finally washed in 1×PBS for 10 min at room temperature. For staining of myotube nuclei, cells were stained with anti-Myogenin antibody diluted in 1% bovine serum albumin (BSA) for overnight at 4° C. and washed twice with 1×PBS for 5 min each at room temperature. Cells were then incubated with the secondary antibody goat anti-rabbit Alexa 488 (Thermo Fisher, A32731) diluted in 1% BSA for 1 hr at room temperature and washed twice with 1×PBS for 5 min each at room temperature. Next, cells were stained with Hoechst solution (Thermo Fisher, H3569) at 0.1 mg/ml for 5 min and washed once with 1×PBS for 5 min. PBS was aspirated and fresh 100 μl of fresh PBS was added to each well. High-throughput acquisition of images was completed with the ImageXpress Micro Confocal High-Content Imaging System (Molecular Devices). RNA foci quantifications were accomplished with a customized analysis module of the MetaXpress program (Molecular Devices).
Each sgRNA pair consisting of one upstream sgRNA and one downstream sgRNA were assembled with recombinant SaCas9 or SluCas9 protein, respectively, into a ribonucleoprotein (RNP) complex and delivered into primary DM1 patient myoblasts with Amaxa 4D-Nucleofector. Post nucleofection, myoblasts were divided into 6 groups and were treated with DMSO (Groups 1-3) or 3 μM of DNA-dependent Protein Kinase Inhibitor (DNA-PKi) Compound 6 (Group 4-6) for 48 hrs. DNA-PKi was used to boost the excision efficiency and to better understand the contribution of E-boxes to DMPK transcription. 72 hrs post nucleofection, myoblasts from Groups 1 and 4 were collected for genomic DNA isolation, whereas the rest of the groups were subjected to myogenic differentiation to form myotubes. The myotubes were collected on Day 15 post nucleofection (Day 12 post differentiation) for mRNA isolation (Group 2 and 5) and RNA foci staining (Groups 3 and 6) (FIG. 9).

Compound | average Foci reduction [4] | further results
Cc1ccnc(N[C@H]2CC[C@@H](Oc3cc(N4CCOCC4)cc4nonc34)CC2)n1 [Compound 6] |  | foci-free myonuclei, DNA-PKi-treated versus vehicle-treated [1]: substantially higher; expected excision, DNA-PKi group compared to the vehicle group [2]: more apparent expected excision; hDMPK mRNA reduction, DNA-Pki treatment group versus DMSO group [3]: more dramatic hDMPK mRNA reduction; further average foci number reduction in myonuclei by DNA-PKi ([4]; DM1 patient myotubes, DNA-PKi group versus DMSO group): no further average foci number reduction
SaU1DI: SaCas9 sgRNA pair SaU1 + SaD1, SEQ ID NOs 1300/1305, delivered as RNP (guide 1 ATGGCCTCTCTGCACCCCGCCT; guide 2 CTGGTTCTCCCACAGGGCCCGC; delivered as SaCas9 RNP, further chemistry not given here) | ~50% | 
SaU3D1: SaCas9 sgRNA pair SaU3 + SaD1, SEQ ID NOs 1302/1305, delivered as RNP (guide 1 TCTCTGCACCCCGCCTCAGGGT; guide 2 CTGGTTCTCCCACAGGGCCCGC; delivered as SaCas9 RNP, further chemistry not given here) | ~50% | 
SaU3D3: SaCas9 sgRNA pair SaU3 + SaD3, SEQ ID NOs 1302/1307, delivered as RNP (guide 1 TCTCTGCACCCCGCCTCAGGGT; guide 2 CTGCGATCCAGGAGGGACAACT; delivered as SaCas9 RNP, further chemistry not given here) | ~50% | 
saU5D1: SaCas9 sgRNA pair SaU5 + SaD1, SEQ ID NOs 1304/1305, delivered as RNP (guide 1 CCATAGAGCCCACTTTTGGGGG; guide 2 CTGGTTCTCCCACAGGGCCCGC; delivered as SaCas9 RNP, further chemistry not given here) | ~50% | 
sluU3D2: SluCas9 sgRNA pair SluU3 + SluD2, delivered as RNP (guide 1 TCTCTGCACCCCGCCTCAGGGT; guide 2 GAAGAACCCAAAGTTGTCCCTC; delivered as SaCas9 RNP, further chemistry not given here) | ~50% | 
sluU3D3: SluCas9 sgRNA pair SluU3 + SluD3, delivered as RNP (guide 1 TCTCTGCACCCCGCCTCAGGGT; guide 2 CTGCGATCCAGGAGGGACAACT; delivered as SaCas9 RNP, further chemistry not given here) | ~50% | 
sluU64D34: control CTG repeat excision SluCas9 sgRNA pair, SEQ ID NOs 1497 and 1498 (guide 1 GGGGCTCGAAGGGTCCTTGTAG; guide 2 CGCGCCAGACGCTCCCCAGAGC; listed as DNA, chemistry not given here) [reference compound] | ~50% | 
